Tested on: HIV
Test: MT4 assay (anti-HIV activity)
Assay type: cell-based
Settings: Human immunodeficiency virus 1, 96 h, antiviral HIV activity in HTLV-1 transformed cell line MT-4; luciferase read 96 hours later; 10 point dose response
Method: Antiviral HIV activity and cytotoxicity values for compounds of the invention from Table 1 were measured in parallel in the HTLV-1 transformed cell line MT-4 based on the method previously described (Hazen et al., 2007, In vitro antiviral activity of the novel, tyrosyl-based human immunodeficiency virus (HIV) type 1 protease inhibitor brecanavir (GW640385) in combination with other antiretrovirals and against a panel of protease inhibitor-resistant HIV (Hazen et al., “In vitro antiviral activity of the novel, tyrosyl-based human immunodeficiency virus (HIV) type 1 protease inhibitor brecanavir (GW640385) in combination with other antiretrovirals and against a panel of protease inhibitor-resistant HIV”, Antimicrob. Agents Chemother. 2007, 51: 3147-3154; and Pauwels et al., “Sensitive and rapid assay on MT-4 cells for the detection of antiviral compounds against the AIDS virus”, J. of Virological Methods 1987, 16: 171-185).
Luciferase activity was measured 96 hours later by adding a cell titer glo (Promega, Madison, Wis.). Percent inhibition of cell protection data was plotted relative to no compound control. Under the same condition, cytotoxicity of the compounds was determined using cell titer Glo™ (Promega, Madison, Wis.). IC50s were determined from a 10 point dose response curve using 3-4-fold serial dilution for each compound, which spans a concentration range >1000 fold.
These values are plotted against the molar compound concentrations using the standard four parameter logistic equation:
y=((Vmax*x̂n)/(K̂n+x̂n))+Y2
Y2=minimum y n=slope factor
Vmax=maximum y x=compound concentration [M]

Structure (SMILES) | IC50 [nM]
Cc1c(-c2c(C)c3c(c(C)c2[C@H](OC(C)(C)C)C(=O)O)CC(=O)N(C2CCCC(F)(F)C2)C3)cc(F)c2c1CCCO2 (stereo partly drawn) [Example 117, (2S)-2-(tert-butoxy)-2-((7R)-2-(3,3-difluorocyclohexyl)-7-(8-fluoro-5-methylchroman-6-yl)-5,8-dimethyl-3-oxo-1,2,3,4-tetrahydroisoquinolin-6-yl)acetic Acid] | 2
Cc1c(-c2c(C)c3c(c(C)c2[C@H](OC(C)(C)C)C(=O)O)CC(=O)N(c2cccc(F)c2)C3)cc(F)c2c1CCCO2 (atropisomer, axis not shown) [Example 103, (S)-2-(tert-Butoxy)-2-((R)-7-(8-fluoro-5-methylchroman-6-yl)-2-(3-fluorophenyl)-5,8-dimethyl-3-oxo-1,2,3,4-tetrahydroisoquinolin-6-yl)acetic Acid] | 2
Cc1ccc(-c2c(C)c3c(c(C)c2[C@H](OC(C)(C)C)C(=O)O)CCN(C2CCCCCCC2)C3)cc1 [Example 69, (S)-2-(tert-butoxy)-2-(2-cyclooctyl-5,8-dimethyl-7-(p-tolyl)-1,2,3,4-tetrahydroisoquinolin-6-yl)acetic Acid] | 6
COc1ccc(C(=O)N2CCc3c(C)c([C@H](OC(C)(C)C)C(=O)O)c(-c4cc(F)c5c(c4C)CCCO5)c(C)c3C2)cc1C (atropisomer, axis not shown) [Example 97, (S)-2-(tert-butoxy)-2-((R)-7-(8-fluoro-5-methylchroman-6-yl)-2-(4-methoxy-3-methylbenzoyl)-5,8-dimethyl-1,2,3,4-tetrahydroisoquinolin-6-yl)acetic Acid] | 36
Cc1ccc(-c2c(C)c3c(c(C)c2[C@H](OC(C)(C)C)C(=O)O)CCN(C2CCC2)C3)cc1 [Example 61, (S)-2-(tert-butoxy)-2-(2-cyclobutyl-5,8-dimethyl-7-(p-tolyl)-1,2,3,4-tetrahydroisoquinolin-6-yl)acetic Acid] | 141
Cc1ccc(-c2c(C)c3c(c(C)c2[C@H](OC(C)(C)C)C(=O)O)CN(C(=O)N2CCCC2)CC3)cc1 [Example 14, (S)-2-(tert-Butoxy)-2-(5,8-dimethyl-2-(pyrrolidine-1-carbonyl)-6-(p-tolyl)-1,2,3,4-tetrahydroisoquinolin-7-yl)acetic Acid] | 1110
Cc1c(-c2c(C)c3c(c(C)c2[C@H](OC(C)(C)C)C(=O)O)CC(=O)N(CC(C)C)C3)cc(F)c2c1CCCO2 (atropisomer, axis not shown) [Example 110] | 3
Cc1ccc(-c2c(C)c3c(c(C)c2C(OC(C)(C)C)C(=O)O)CN(C(=O)NC2CCCCC2)CC3)cc1 (centres unmarked) [Example 10, 2-(tert-Butoxy)-2-(2-(cyclohexylcarbamoyl)-5,8-dimethyl-6-(p-tolyl)-1,2,3,4-tetrahydroisoquinolin-7-yl)acetic Acid] | 1480
Cc1ccc(-c2c(C)c3c(c(C)c2[C@H](OC(C)(C)C)C(=O)O)CCN(S(=O)(=O)c2cccc(F)c2)C3)cc1 [Example 57, (S)-2-(tert-butoxy)-2-(2-((3-fluorophenyl)sulfonyl)-5,8-dimethyl-7-(p-tolyl)-1,2,3,4-tetrahydroisoquinolin-6-yl)acetic Acid] | 292
Cc1ccc(-c2c(C)c3c(c(C)c2[C@H](OC(C)(C)C)C(=O)O)CCN(C(=O)C2(C)CCCCC2)C3)cc1 [Example 76, (S)-2-(tert-butoxy)-2-(5,8-dimethyl-2-(1-methylcyclohexanecarbonyl)-7-(p-tolyl)-1,2,3,4-tetrahydroisoquinolin-6-yl)acetic Acid] | 41
Cc1c(-c2c(C)c3c(c(C)c2[C@H](OC(C)(C)C)C(=O)O)CCN(C2CCC(C)(C)CC2)C3)cc(F)c2c1CCCO2 [Example 81, (S)-2-(tert-Butoxy)-2-((R)-2-(4,4-dimethylcyclohexyl)-7-(8-fluoro-5-methylchroman-6-yl)-5,8-dimethyl-1,2,3,4-tetrahydroisoquinolin-6-yl)acetic Acid] | 4
Cc1ccc(-c2c(C)c3c(c(C)c2[C@H](OC(C)(C)C)C(=O)O)CCN(CC(C)(C)C)C3)cc1 [Example 33, (S)-2-(tert-Butoxy)-2-(5,8-dimethyl-2-neopentyl-7-(p-tolyl)-1,2,3,4-tetrahydroisoquinolin-6-yl)acetic Acid] | 37
Cc1ccc(-c2c(C)c3c(c(C)c2[C@H](OC(C)(C)C)C(=O)O)CCN(C(=O)C(=O)N2CCCCC2)C3)cc1 [Example 46, (S)-2-(tert-butoxy)-2-(5,8-dimethyl-2-(2-oxo-2-(piperidin-1-yl)acetyl)-7-(p-tolyl)-1,2,3,4-tetrahydroisoquinolin-6-yl)acetic Acid] | 276
Cc1c(-c2c(C)c3c(c(C)c2[C@H](OC(C)(C)C)C(=O)O)CCN(C(=O)c2ccc(C(F)(F)F)cc2)C3)cc(F)c2c1CCCO2 [Example 94, (S)-2-(tert-Butoxy)-2-((R)-7-(8-fluoro-5-methylchroman-6-yl)-5,8-dimethyl-2-(4-(trifluoromethyl)benzoyl)-1,2,3,4-tetrahydroisoquinolin-6-yl)acetic Acid] | 384
Cc1c(-c2c(C)c3c(c(C)c2[C@H](OC(C)(C)C)C(=O)O)CCN(CC2CCCCC2)C3)cc(F)c2c1CCCO2 [Example 85, (S)-2-(tert-Butoxy)-2-((R)-2-(cyclohexylmethyl)-7-(8-fluoro-5-methylchroman-6-yl)-5,8-dimethyl-1,2,3,4-tetrahydroisoquinolin-6-yl)acetic Acid] | 14
Cc1c(-c2c(C)c3c(c(C)c2[C@H](OC(C)(C)C)C(=O)O)CC(=O)N(C2CCCCC2)C3)ccc2c1CCCO2 (atropisomer, axis not shown) [Example 120, (S)-2-(tert-butoxy)-2-((R)-2-cyclohexyl-5,8-dimethyl-7-(5-methylchroman-6-yl)-3-oxo-1,2,3,4-tetrahydroisoquinolin-6-yl)acetic Acid] | 2
Cc1c(-c2c(C)c3c(c(C)c2[C@H](OC(C)(C)C)C(=O)O)CCN(S(=O)(=O)C2CCCCC2)C3)cc(Cl)c2c1CCCO2 (atropisomer, axis not shown; (M)) [Example 88, (S)(M)-2-(tert-butoxy)-2-(7-(8-chloro-5-methylchroman-6-yl)-2-(cyclohexylsulfonyl)-5,8-dimethyl-1,2,3,4-tetrahydroisoquinolin-6-yl)acetic Acid] | 36
Cc1ccc(-c2c(C)c3c(c(C)c2[C@H](OC(C)(C)C)C(=O)O)CCN(C2CCC4(CC2)CC4)C3)cc1 [Example 51, (S)-2-(tert-butoxy)-2-(5,8-dimethyl-2-(spiro[2.5]octan-6-yl)-7-(p-tolyl)-1,2,3,4-tetrahydroisoquinolin-6-yl)acetic Acid] | 11
Cc1ccc(-c2c(C)c3c(c(C)c2C(OC(C)(C)C)C(=O)O)CN(Cc2cccc(F)c2)CC3)cc1 (centres unmarked) [Example 1, 2-(tert-Butoxy)-2-(2-(3-fluorobenzyl)-5,8-dimethyl-6-(p-tolyl)-1,2,3,4-tetrahydroisoquinolin-7-yl)acetic Acid] | 3250
Cc1ccc(-c2c(C)c3c(c(C)c2[C@H](OC(C)(C)C)C(=O)O)CN(C(=O)CC2CCCCC2)CC3)cc1 [Example 37, (S)-2-(tert-butoxy)-2-(2-(2-cyclohexylacetyl)-5,8-dimethyl-6-(p-tolyl)-1,2,3,4-tetrahydroisoquinolin-7-yl)acetic Acid] | 118
Cc1ccc(-c2c(C)c3c(c(C)c2[C@H](OC(C)(C)C)C(=O)O)CN(S(=O)(=O)N2CCCCC2)CC3)cc1 [Example 16, (S)-2-(tert-Butoxy)-2-(5,8-dimethyl-2-(piperidin-1-ylsulfonyl)-6-(p-tolyl)-1,2,3,4-tetrahydroisoquinolin-7-yl)acetic Acid] | 34
Cc1ccc(-c2c(C)c3c(c(C)c2[C@H](OC(C)(C)C)C(=O)O)CCN(CC(=O)N2CCCCC2)C3)cc1 [Example 54, (S)-2-(tert-butoxy)-2-(5,8-dimethyl-2-(2-oxo-2-(piperidin-1-yl)ethyl)-7-(p-tolyl)-1,2,3,4-tetrahydroisoquinolin-6-yl)acetic Acid] | 309
Cc1ccc(-c2c(C)c3c(c(C)c2[C@H](OC(C)(C)C)C(=O)O)CCN(C2CC4CCC2C4)C3)cc1 (stereo partly drawn) [Example 49, (2S)-2-(2-(bicyclo[2.2.1]heptan-2-yl)-5,8-dimethyl-7-(p-tolyl)-1,2,3,4-tetrahydroisoquinolin-6-yl)-2-(tert-butoxy)acetic Acid] | 11
Cc1ccc(-c2c(C)c3c(c(C)c2C(OC(C)(C)C)C(=O)O)CC(=O)N(Cc2ccccc2)C3)cc1 (centres unmarked) [Example 98, 2-(2-Benzyl-5,8-dimethyl-3-oxo-7-(p-tolyl)-1,2,3,4-tetrahydroisoquinolin-6-yl)-2-(tert-butoxy)acetic Acid] | 14
Cc1c(-c2c(C)c3c(c(C)c2[C@H](OC(C)(C)C)C(=O)O)CCN(S(=O)(=O)C2CCCCC2)C3)cc(F)c2c1CCCO2 [Example 80, (S)-2-(tert-Butoxy)-2-((R)-2-(cyclohexylsulfonyl)-7-(8-fluoro-5-methylchroman-6-yl)-5,8-dimethyl-1,2,3,4-tetrahydroisoquinolin-6-yl)acetic Acid] | 13
Cc1ccc(-c2c(C)c3c(c(C)c2[C@H](OC(C)(C)C)C(=O)O)CN(S(=O)(=O)N2CCC(C)(C)CC2)CC3)cc1 [Example 15, (S)-2-(tert-Butoxy)-2-(2-((4,4-dimethylpiperidin-1-yl)sulfonyl)-5,8-dimethyl-6-(p-tolyl)-1,2,3,4-tetrahydroisoquinolin-7-yl)acetic Acid] | 113

Reference: patent US20180334436A1 (VIIV HEALTHCARE UK LIMITED, priority 2015, published 2018)
